How the values were obtained:
293 T cells = experiment: In vitro cell killing by calicheamicin and linker-drug constructs (CellTiter-Glo, 72 hours); type: cell-based
Method: (§1) 293 T cells were used along with MES SA and MES SA/Dx cells which comprise uterine sarcoma lines purchased from ATCC. The MES SA/Dx cell line was generated from MES SA cells cultured with increasing amounts of doxorubicin resulting in 100-fold resistance to doxorubicin and upregulation of MDR1.
(§2) The cells were cultured in a T75 flask to ˜50-80% confluency and harvested with trypsin into a single cell suspension. Five hundred (500) cells per well were seeded in tissue culture plates in 50 μL/well culture media and incubated at 37° C. for 18-24 hours. Compounds were diluted as 400× final desired concentrations in DMSO. Serial dilutions in DMSO were then diluted in culture media for a final DMSO concentration of 0.25% and 50 μL/well of the final dilution was added to the cells (Vf=100 μL). Upon plating and treatment, cells were returned to the incubator for an additional 72 hours. CellTiter-Glo reagent was prepared per manufacturer's instructions and added at 100 μL/well to the cultures. CellTiter-Glo allows for relative enumeration of metabolically active cells by quantifying intracellular ATP concentrations. After 5 minutes of incubation with CellTiter-Glo at ambient room temperature, 125 μL/well of the Cell Titer Glo/cell lysate solution was transferred into black assay plates, which were then read in a luminometer within 30 minutes.

[1] = system: MES SA cells (uterine sarcoma line); experiment: as above; type: cell-based; conditions: for IC50: MES SA
Method: as §1, §2

[2] = system: MES SA/Dx cells (doxorubicin-resistant uterine sarcoma line, MDR1 upregulated); experiment: as above; type: cell-based
Method: as §1, §2

Cathepsin B = Cathepsin B (Homo sapiens, UniProt P07858); experiment: Cathepsin B cleavage assay of dipeptide linker-drug constructs; type: biochemical; conditions: NAC-quenched linker-drug, 2.5, 5 or 10 mol % enzyme, pH 6.0, room temperature, 15-90 min
Method: Initially linker drug constructs from Examples 3 and 4 were treated with IM N-acetyl cysteine solution to quench maleimide functionality prior to the cathepsin B treatment. Excess of N-acetyl cysteine is used to activate the Cathepsin B.
More specifically quenched linker-drugs in 1:1 acetonitrile:water solution (20 ul) were diluted with 20 mM HisC1 pH 6.0 to a final acetonitrile content of 10% v/v ([…]). Cathepsin B enzyme was added to result in 2.5 mol %, 5 mol % or 10 mol % enzyme relative to the linker-drug. Reactions were vortexed gently and kept at room temperature. At the time points of 15, 30, 60 and 90 min 3 ul of the reaction mixture were placed into the total recovery vial containing 5 uL Tris pH 9, 2 uL 100 mM […] (DHAA), 15 ul water. The samples were analyzed using Analytical Method B set forth above. Conversion was calculated based on the decrease of the starting material peak area.

[3] = SMALL MOLECULE IVK (10 nM start, 5X dilutions)
[4] = SMALL MOLECULE IVK (10 nM start, 5X dilutions), listed as N acetyl calicheamicin (lot B)
[5] = LINKER DRUG IVK (1000 nM start, 10X dilutions)

Compound | IC50 (293 T cells; [3]) [nM] | IC50 (293 T cells; [4]) [nM] | IC50 [1, 3] [nM] | IC50 [1, 4] [nM] | derived IC50 values, range of activity ([1]; summary of Table 5) | IC50 [2, 3] [nM] | IC50 [2, 4] [nM] | cleavage by Cathepsin B (Cathepsin B) | rate of cleavage by Cathepsin B, compared between constructs (Cathepsin B) | IC50 (293 T cells; [5]) [nM] | IC50 [1, 5] [nM] | IC50 [2, 5] [nM]
CCN(C(C)=O)[C@H]1CO[C@@H](O[C@H]2[C@H](O[C@H]3C#C/C=C\C#C[C@]4(O)CC(=O)C(NC(=O)OC)=C3/C4=C\CSSSC)O[C@H](C)[C@@H](NO[C@H]3C[C@H](O)[C@H](SC(=O)c4c(C)c(I)c(O[C@@H]5O[C@@H](C)[C@H](O)[C@@H](OC)[C@H]5O)c(OC)c4OC)[C@@H](C)O3)[C@@H]2O)C[C@@H]1OC [N acetyl calicheamicin (lot A), N-acetyl calicheamicin γ 1] | 0.0409 | 0.052 | 0.0308 | 0.0693 | picomolar range | 30.6 | 17.1 | – | – | – | – | –
CCN(C(C)=O)[C@H]1CO[C@@H](O[C@H]2[C@H](O[C@H]3C#C/C=C\C#C[C@]4(O)CC(=O)C(NC(=O)OC)=C3/C4=C\CSSC(C)(C)CCC(=O)NCCNC(=O)OCc3ccc(NC(=O)[C@H](C)NC(=O)[C@@H](NC(=O)CCCCCN4C(=O)C=CC4=O)C(C)C)cc3)O[C@H](C)[C@@H](NO[C@H]3C[C@H](O)[C@H](SC(=O)c4c(C)c(I)c(O[C@@H]5O[C@@H](C)[C@H](O)[C@@H](OC)[C@H]5O)c(OC)c4OC)[C@@H](C)O3)[C@H]2O)C[C@@H]1OC [Val-Ala calicheamicin] | – | – | – | – | – | – | – | effectively cleaved | – | – | – | –
CCN(C(C)=O)[C@H]1CO[C@@H](O[C@H]2[C@H](O[C@H]3C#C/C=C\C#C[C@]4(O)CC(=O)C(NC(=O)OC)=C3/C4=C\CSSC(C)(C)CCC(=O)NCCNC(=O)OCc3ccc(NC(=O)[C@H](CCCNC(N)=O)NC(=O)[C@@H](NC(=O)CCCCCN4C(=O)C=CC4=O)C(C)C)cc3)O[C@H](C)[C@@H](NO[C@H]3C[C@H](O)[C@H](SC(=O)c4c(C)c(I)c(O[C@@H]5O[C@@H](C)[C@H](O)[C@@H](OC)[C@H]5O)c(OC)c4OC)[C@@H](C)O3)[C@H]2O)C[C@@H]1OC [Val-Cit calicheamicin] | – | – | – | – | – | – | – | effectively cleaved | cleaved more rapidly than the Val-Ala dipeptidyl construct | 46 | 6.3 | > 1000
